Measured values: ChEMBL document CHEMBL3885861, “Open TG-GATES”

Organism: Rattus norvegicus
Assay: Open TG-GATES - Regimen: Single
Assay type: toxicity, organism-based, Sprague-Dawley
Parameters: regimen Single, gender Male, age 6 weeks
Conditions: in vivo, po, route gavage; for APTT / Bas / Eos / Fbg / Hb / Ht / Lym / MCH / MCHC / MCV / Mono / Neu / PT / Plat / RBC / Ret / WBC: tissue Blood; for KIDNEY_L / KIDNEY_R / KIDNEY_TOTAL: tissue Kidney; for LIVER: tissue Liver; for ALP / ALT / AST / BUN / CRE / DBIL / GLC / K / Na / PL / RALB / TBIL / TC / TG / TP / gamma-GTP: tissue Plasma
[1] = 0 mg/kg, 3 h, dose level Control
[2] = 0 mg/kg, 6 h, dose level Control
[3] = 0 mg/kg, 9 h, dose level Control
[4] = 0 mg/kg, 24 h, dose level Control

## CN1C(=O)CN=C(c2ccccc2)c2cc(Cl)ccc21 [DIAZEPAM]
[1]
  TERMINAL_BW: 214.4 g
  APTT: 15.9 s
  Bas: 0%
  Eos: 1%
  Fbg: 213.4 mg/dL
  Hb: 13.5 g/dL
  Ht: 40.5%
  Lym: 71.2%
  MCH: 22.3 pg
  MCHC: 33.3%
  MCV: 66.9 fL
  Mono: 8.6%
  Neu: 19.6%
  PT: 12.4 s
  Plat: 101 x10_4/uL
  RBC: 606 x10_4/ul
  Ret: 8.2%
  WBC: 109.8 x10_2/uL
  KIDNEY_L: 1 g
  KIDNEY_R: 1 g
  KIDNEY_TOTAL: 2 g
  LIVER: 10.2 g
  ALP: 836.4 IU/L
  ALT: 31.8 IU/L
  AST: 66.6 IU/L
  BUN: 14.2 mg/dL
  CRE: 0.5 mg/dL
  DBIL: 0.028 mg/dL
  GLC: 187.4 mg/dL
  K: 5.2 meq/L
  Na: 138.8 meq/L
  PL: 131.6 mg/dL
  RALB: 3.7 g/dL
  TBIL: 0.4 mg/dL
  TC: 71 mg/dL
  TG: 52.2 mg/dL
  TP: 5.5 g/dL
  gamma-GTP: 1.8 IU/L
[2]
  TERMINAL_BW: 213 g
  APTT: 16.6 s
  Bas: 0%
  Eos: 0.6%
  Fbg: 216 mg/dL
  Hb: 13.8 g/dL
  Ht: 41.8%
  Lym: 77.2%
  MCH: 21.4 pg
  MCHC: 33.1%
  MCV: 64.6 fL
  Mono: 6.4%
  Neu: 15.8%
  PT: 12.6 s
  Plat: 106.4 x10_4/uL
  RBC: 647 x10_4/ul
  Ret: 8.5%
  WBC: 105.2 x10_2/uL
  KIDNEY_L: 1 g
  KIDNEY_R: 1 g
  KIDNEY_TOTAL: 2 g
  LIVER: 9.6 g
  ALP: 878 IU/L
  ALT: 29.6 IU/L
  AST: 60 IU/L
  BUN: 9.8 mg/dL
  CRE: 0.5 mg/dL
  DBIL: 0.016 mg/dL
  GLC: 203 mg/dL
  K: 4.9 meq/L
  Na: 138.6 meq/L
  PL: 140 mg/dL
  RALB: 3.7 g/dL
  TBIL: 0.3 mg/dL
  TC: 74.8 mg/dL
  TG: 84.2 mg/dL
  TP: 5.6 g/dL
  gamma-GTP: 1.2 IU/L
[3]
  TERMINAL_BW: 212.8 g
  APTT: 15.7 s
  Bas: 0%
  Eos: 0.8%
  Fbg: 215.4 mg/dL
  Hb: 13.6 g/dL
  Ht: 41.5%
  Lym: 79.2%
  MCH: 21.7 pg
  MCHC: 32.8%
  MCV: 66 fL
  Mono: 5.6%
  Neu: 14.4%
  PT: 12.7 s
  Plat: 101.7 x10_4/uL
  RBC: 628.4 x10_4/ul
  Ret: 8.2%
  WBC: 117.7 x10_2/uL
  KIDNEY_L: 1 g
  KIDNEY_R: 1 g
  KIDNEY_TOTAL: 2 g
  LIVER: 9 g
  ALP: 712.4 IU/L
  ALT: 29 IU/L
  AST: 59.8 IU/L
  BUN: 10.6 mg/dL
  CRE: 0.6 mg/dL
  DBIL: 0.038 mg/dL
  GLC: 204 mg/dL
  K: 4.8 meq/L
  Na: 138.6 meq/L
  PL: 130.4 mg/dL
  RALB: 3.7 g/dL
  TBIL: 0.4 mg/dL
  TC: 75 mg/dL
  TG: 41.6 mg/dL
  TP: 5.5 g/dL
  gamma-GTP: 1.8 IU/L
[4]
  TERMINAL_BW: 227.4 g
  APTT: 16.7 s
  Bas: 0%
  Eos: 1%
  Fbg: 210.2 mg/dL
  Hb: 13.7 g/dL
  Ht: 41%
  Lym: 81.6%
  MCH: 21.9 pg
  MCHC: 33.4%
  MCV: 65.8 fL
  Mono: 5.8%
  Neu: 12.2%
  PT: 12.2 s
  Plat: 108.9 x10_4/uL
  RBC: 624.2 x10_4/ul
  Ret: 7.7%
  WBC: 114.5 x10_2/uL
  KIDNEY_L: 1.1 g
  KIDNEY_R: 1 g
  KIDNEY_TOTAL: 2.1 g
  LIVER: 11.2 g
  ALP: 817.8 IU/L
  ALT: 33.4 IU/L
  AST: 58.4 IU/L
  BUN: 15.2 mg/dL
  CRE: 0.5 mg/dL
  DBIL: 0.006 mg/dL
  GLC: 191.2 mg/dL
  K: 5.1 meq/L
  Na: 138.6 meq/L
  PL: 131.8 mg/dL
  RALB: 3.9 g/dL
  TBIL: 0.3 mg/dL
  TC: 63.2 mg/dL
  TG: 112.8 mg/dL
  TP: 5.8 g/dL
  gamma-GTP: 1 IU/L
25 mg/kg, 3 h, dose level Low
  TERMINAL_BW: 218.9 g
  APTT: 16.3 s
  Bas: 0%
  Eos: 1.2%
  Fbg: 227 mg/dL
  Hb: 13.9 g/dL
  Ht: 41.8%
  Lym: 76.6%
  MCH: 21.8 pg
  MCHC: 33.2%
  MCV: 65.8 fL
  Mono: 7.8%
  Neu: 14.8%
  PT: 12.4 s
  Plat: 98.7 x10_4/uL
  RBC: 636.6 x10_4/ul
  Ret: 8.7%
  WBC: 93.5 x10_2/uL
  KIDNEY_L: 1 g
  KIDNEY_R: 1 g
  KIDNEY_TOTAL: 1.9 g
  LIVER: 10.3 g
  ALP: 763.4 IU/L
  ALT: 30 IU/L
  AST: 57.8 IU/L
  BUN: 13.2 mg/dL
  CRE: 0.5 mg/dL
  DBIL: 0.018 mg/dL
  GLC: 195.4 mg/dL
  K: 5.3 meq/L
  Na: 139 meq/L
  PL: 150.2 mg/dL
  RALB: 3.7 g/dL
  TBIL: 0.4 mg/dL
  TC: 83.2 mg/dL
  TG: 66.2 mg/dL
  TP: 5.5 g/dL
  gamma-GTP: 2 IU/L
25 mg/kg, 6 h, dose level Low
  TERMINAL_BW: 216.1 g
  APTT: 16.3 s
  Bas: 0%
  Eos: 0.6%
  Fbg: 217 mg/dL
  Hb: 13.9 g/dL
  Ht: 42%
  Lym: 79.4%
  MCH: 21.6 pg
  MCHC: 33%
  MCV: 65.2 fL
  Mono: 5.6%
  Neu: 14.8%
  PT: 12.1 s
  Plat: 110.2 x10_4/uL
  RBC: 643.4 x10_4/ul
  Ret: 8.1%
  WBC: 117.8 x10_2/uL
  KIDNEY_L: 0.9 g
  KIDNEY_R: 1 g
  KIDNEY_TOTAL: 1.9 g
  LIVER: 9.8 g
  ALP: 989.8 IU/L
  ALT: 30.8 IU/L
  AST: 64.6 IU/L
  BUN: 12 mg/dL
  CRE: 0.5 mg/dL
  DBIL: 0.058 mg/dL
  GLC: 202.2 mg/dL
  K: 5.3 meq/L
  Na: 138.6 meq/L
  PL: 143.4 mg/dL
  RALB: 3.8 g/dL
  TBIL: 0.4 mg/dL
  TC: 77.2 mg/dL
  TG: 67.4 mg/dL
  TP: 5.7 g/dL
  gamma-GTP: 1 IU/L
25 mg/kg, 9 h, dose level Low
  TERMINAL_BW: 212.2 g
  APTT: 16.6 s
  Bas: 0%
  Eos: 0.6%
  Fbg: 229.8 mg/dL
  Hb: 13.8 g/dL
  Ht: 41.7%
  Lym: 78.8%
  MCH: 21.6 pg
  MCHC: 33%
  MCV: 65.4 fL
  Mono: 6.2%
  Neu: 14.4%
  PT: 12.2 s
  Plat: 102.9 x10_4/uL
  RBC: 638.2 x10_4/ul
  Ret: 7.5%
  WBC: 107.6 x10_2/uL
  KIDNEY_L: 1 g
  KIDNEY_R: 1 g
  KIDNEY_TOTAL: 2 g
  LIVER: 9.4 g
  ALP: 723.6 IU/L
  ALT: 26 IU/L
  AST: 57.2 IU/L
  BUN: 12.4 mg/dL
  CRE: 0.6 mg/dL
  DBIL: 0.044 mg/dL
  GLC: 212.6 mg/dL
  K: 4.8 meq/L
  Na: 139.6 meq/L
  PL: 142 mg/dL
  RALB: 3.9 g/dL
  TBIL: 0.3 mg/dL
  TC: 83.8 mg/dL
  TG: 44.8 mg/dL
  TP: 5.7 g/dL
  gamma-GTP: 1.6 IU/L
25 mg/kg, 24 h, dose level Low
  TERMINAL_BW: 227.7 g
  APTT: 16.3 s
  Bas: 0%
  Eos: 1%
  Fbg: 219.6 mg/dL
  Hb: 13.4 g/dL
  Ht: 40.4%
  Lym: 81%
  MCH: 21.7 pg
  MCHC: 33.1%
  MCV: 65.7 fL
  Mono: 5.6%
  Neu: 12.2%
  PT: 12.2 s
  Plat: 105.2 x10_4/uL
  RBC: 616 x10_4/ul
  Ret: 8.5%
  WBC: 100.5 x10_2/uL
  KIDNEY_L: 1 g
  KIDNEY_R: 1.1 g
  KIDNEY_TOTAL: 2.1 g
  LIVER: 11.2 g
  ALP: 1114.4 IU/L
  ALT: 33.8 IU/L
  AST: 63 IU/L
  BUN: 16.6 mg/dL
  CRE: 0.5 mg/dL
  DBIL: 0.016 mg/dL
  GLC: 185.6 mg/dL
  K: 5.1 meq/L
  Na: 140 meq/L
  PL: 152.8 mg/dL
  RALB: 3.7 g/dL
  TBIL: 0.3 mg/dL
  TC: 82.2 mg/dL
  TG: 108.6 mg/dL
  TP: 5.8 g/dL
  gamma-GTP: 1.2 IU/L
